Measurements published in patent US6225332A, “Compositions containing histamine H2 agonists and methods of use in treating allergy and inflammation” (priority 1998, dated 2001).

Experiments:
[1] = system: rodent mast cell; conditions: cited from earlier work
[2] = system: human skin mast cells; conditions: cited from earlier work
[3] = system: mast cells obtained from bronchoalveolar lavage fluid; conditions: 100 μM; human trials; cited from earlier work
[4] = human, in vivo; cited from earlier work
[5] = system: human conjunctival mast cells; experiment: Miller Test: inhibition of anti-IgE-induced histamine release (mast cell stabilization assay); type: cell-based; conditions: for inhibition at 10 µM / inhibition at 100 µM: * p < 0.05, Dunnett's t-test (dimaprit only); for inhibition at 1000 µM: * p < 0.05, Dunnett's t-test (both compounds)
Excerpt: While mast cells exist in various tissues and species, there is considerable mast cell heterogeneity within these different sources. Therefore, in order to provide compounds of the present invention which are specific for human conjunctival mast cells, drug compounds need to be tested for inhibition of human conjunctival mast cell degranulation using human conjunctival mast cells. Such efficacy can be determined by using the method described in U.S. Pat. No. 5,360,720 (Miller et al.) and in Miller, et al., "Human conjunctival mast cell responses in vitro to various secretagogues," Ocular Immunology and Inflammation, volume 4, issue 1, pages 39-49 (1996) (the "Miller Test"), the entire contents of the forgoing patent and article are incorporated herein by reference.
The Miller Test is generally performed by the following protocol:
Human conjunctival tissue mast cells are isolated from post-mortem tissue donors obtained within 8 hours of death by various eye banks and transported in Dexsole corneal preservation medium. Tissues are then enzymatically digested by repeated exposure (30 minutes at 37° C.) to collagenase (Type IV) and hyaluronidase (Type I-S) (2 times with 200 U […] each/gram tissue, then 2-4 times with 2000 U each/gram tissue) in Tyrode's buffer containing 0.1% gelatin. Each digestion mixture is filtered over Nitex® cloth (100 µm mesh) and washed with an equal volume of buffer. Filtrates are centrifuged at 825×g (7 mininutes). Pellets are resuspended in buffer then combined for enrichment over a […] Percoll® cushion. The enriched pellet is then washed and resuspended in supplemented RPMI 1640 medium for equilibration at 37° C.
The preparations containing the mast cells are then placed in a culture medium, preferably supplemented RPMI 1640, and allowed to equilibrate at about 30°-37° C. for a minimum of about 40 hours.
After equilibrating for a minimum of about 40 hours, the cells may be harvested from the culture (for example, by gentle flushing utilizing pasteur pipettes), pooled and centrifuged.
Cell pellets may then be resuspended in buffer and viability and mast cell number determined by well known methods. The conjunctival mast cells are now prepared for use in mast cell stabilization assays.
All test drugs are placed into solution immediately prior to use. Generally, each compound is dissolved in Tyrode's buffer containing 0.1% gelatin and diluted to an appropriate concentration.
Cells are harvested from the culture plate and counted for viability (trypan blue exclusion) and mast cell number (toluidine blue O). Mast cells (5000/tube; 1 milliliter ("mL," final volume) are then challenged (37° C.) for 15 minutes with goat-anti-human IgE (10 μg/mL) following treatment (1 or 15 minutes; 37° C.) with test drug or Tyrode's buffer. Total and non-specific release controls are exposed to 0.1% Triton X-100 and goat IgG (10 μg/mL), respectively. The reaction was terminated by centrifugation (500×g, 4° C., 10 minutes). Supernatants are stored at -20° C. until analyzed for histamine content by radioimmunoassay ("RIA").
The IC50 of each compound (concentration at which 50% of the histamine release was inhibited, as compared to control) was then calculated.
The H2 agonists, dimaprit and amthamine, were tested in the Miller Test, as described in Example 1, above. Table I and FIG. 1 illustrate the efficacy of dimaprit and amthamine on the inhibition of histamine release from human conjunctival mast cells.

| SMILES | inhibition of rodent mast cell degranulation [1] | inhibition of histamine release from human skin mast cells [2] | inhibition of mast cells obtained from bronchoalveolar lavage fluid [3] | irritation / side effects [4] | inhibition at 0.1 µM ([5]; 0.1 μM) | inhibition at 1 µM [5] | inhibition at 10 µM [5] | inhibition at 100 µM [5] | inhibition at 1000 µM [5] | inhibition at 10000 µM ([5]; 10,000 μM, * p < 0.05, Dunnett's t-test) |
| --- | --- | --- | --- | --- | --- | --- | --- | --- | --- | --- |
| O=C(O)c1cc(=O)c2c(OCC(O)COc3cccc4oc(C(=O)O)cc(=O)c34)cccc2o1 [Disodium cromoglycate] | shown to inhibit rodent mast cell degranulation | not inhibited at all | inhibited mast cells obtained from bronchoalveolar lavage fluid | irritating to some patients | – | – | – | – | – | – |
| Cc1nc(N)sc1CCN [amthamine] | – | – | – | – | 11% | 3.6 ± 3.9% | 7.3 ± 6.5% | 9.9 ± 8.6% | 60.5 ± 6.2% | – |
| CN(C)CCCSC(=N)N [dimaprit] | – | – | – | – | – | 10.1 ± 4.2% | 14.4 ± 9.3% | 35 ± 3.5% | 75.9 ± 3.5% | 83.6 ± 0.9% |
